Source: patent US20230057568A1, “COMPOUNDS FOR TREATING FAMILIAL DYSAUTONOMIA” (PTC THERAPEUTICS, INC., priority 2019, published 2023)

Test system: Elongator complex protein 1 (ELP1, also referred to as IKBKAP)
Assay: IKBKAP-HTRF Assay
Assay type: cell-based, human
Conditions: FD patient-derived fibroblasts GM04589, 48 hours incubation; for EC2x for IKBKAP protein expression (concentration producing two times the amount of IKBKAP protein vs DMSO vehicle control): 7-point concentration curve; for MFI (maximum fold increase in IKBKAP protein abundance relative to the vehicle control): HTRF
Protocol: The assay is used for the quantitative determination of Elongator complex protein 1 (ELP1, also referred to as IKBKAP) concentration in cell lysates using the HTRF® (Homogeneous Time-Resolved Fluorescence) technology. IKBKAP is detected in a sandwich HTRF assay by use of an anti-IKAP antibody labeled with a donor and an anti-IKAP antibody labeled with an acceptor.
Cells were thawed and incubated in DMEM-10% FBS for 72 hours. Cells were trypsinized, counted, and re-suspended to a concentration of 50,000 cells/mL in DMEM-10% FBS. A 199 μL, aliquot of the cell suspensions were plated at 10,000 cells per well in a 96 well microtiter plate and incubated for 3 to 5 hours. […] Test compounds were serially diluted 3.16-fold in 100% DMSO to generate a 7-point concentration curve. A 1 μL aliquot of 200× compound solution was transferred to cell-containing wells, and cells were incubated for 48 hours in a cell culture incubator (37° C., 5% CO2, 100% relative humidity). Triplicate samples were set up for each compound concentration. After 48 hours, the supernatant was removed from the cells and 50 μL of the 1× LB4 lysis buffer, containing protease inhibitors, was added to the cells and incubated with shaking at room temperature for 1 hour. A 36 μL aliquot of this lysate was subsequently transferred to the 384-well plate containing 4 μL of the antibody solution (1:50 dilution of anti IKAP d2 and anti-IKAP K(9+8) in detection buffer). The 384-well plate was then centrifuged for 1 minute to bring the solutions to the bottom of the plate and incubated overnight at 4° C. Fluorescence for each well of the plate at 665 nm and 620 nm was measured was on the EnVision plate reader (Perkin Elmer). The AF for each sample is calculated by: […]
wherein Signal is the normalized fluorescence for each sample well and Blank is the average normalized average fluorescence for the Blank control wells.
The maximum fold increase (MFI) in IKBKAP protein abundance for compounds of Formula (I) or a form thereof relative to the vehicle control are provided in Table 1. MFI was calculated by dividing the AF value for each sample well by the sample AF for the vehicle control wells.
The EC2× for IKBKAP protein expression obtained from the 7-point concentration curve generated for each test compound according to the protocol in Biological Example 1 are also provided in Table 1. The term “EC2× for IKBKAP protein expression” is defined as the concentration of test compound that is effective in producing two times the amount of IKBKAP protein in a FD patient cell compared to the amount produced from the DMSO vehicle control.

Compound | EC2x for IKBKAP protein expression (concentration producing two times the amount of IKBKAP protein vs DMSO vehicle control) | MFI (maximum fold increase in IKBKAP protein abundance relative to the vehicle control)
Cc1c(C[C@H](C)N)sc2c(NCc3ncccn3)nc(Cl)nc12 [Cpd 55, 6-[(2S)-2-aminopropyl]-2-chloro-7-methyl-N-[(pyrimidin-2-yl)methyl]thieno[3,2-d]pyrimidin-4-amine] | *** (between >0.02 μM and ≤0.5 μM) | *** (between >2.9 and <3.9)
Cc1c(C[C@H](C)N)sc2c(NCc3ccnn3C)nc(Cl)nc12 [Cpd 81, 6-[(2S)-2-aminopropyl]-2-chloro-7-methyl-N-[(1-methyl-1H-pyrazol-5-yl)methyl]thieno[3,2-d]pyrimidin-4-amine] | * (EC2×>1 μM) | * (MFI<1.9)
Cc1c(CCCN)sc2c(NCc3ccco3)nc(Cl)nc12 [Cpd 67, 6-(3-aminopropyl)-2-chloro-N-[(furan-2-yl)methyl]-7-methylthieno[3,2-d]pyrimidin-4-amine] | * (EC2×>1 μM) | * (MFI<1.9)
Cc1c(C[C@H](C)CN)sc2c(NCc3ccco3)nc(Cl)nc12 [Cpd 70, 6-[(2S)-3-amino-2-methylpropyl]-2-chloro-N-[(furan-2-yl)methyl]-7-methylthieno[3,2-d]pyrimidin-4-amine] | *** (between >0.02 μM and ≤0.5 μM) | **** (between >3.9 and <4.9)
C[C@H](N)Cc1cc2ncnc(NCc3ccncc3)c2s1 [Cpd 11, 6-[(2S)-2-aminopropyl]-N-[(pyridin-4-yl)methyl]thieno[3,2-d]pyrimidin-4-amine] | *** (between >0.02 μM and ≤0.5 μM) | **** (between >3.9 and <4.9)
Cc1c(C[C@H](C)N)sc2c(NCc3ccco3)nc(C#N)nc12 [Cpd 21, 6-[(2S)-2-aminopropyl]-4-{[(furan-2-yl)methyl]amino}-7-methylthieno[3,2-d]pyrimidine-2-carbonitrile] | **** (between >0.005 μM and ≤0.02 μM) | ***** (>4.9)
Cc1c(C[C@@H](N)CCO)sc2c(NCc3ccco3)nc(Cl)nc12 [Cpd 97, (3S)-3-amino-4-(2-chloro-4-{[(furan-2-yl)methyl]amino}-7-methylthieno[3,2-d]pyrimidin-6-yl)butan-1-ol] | ***** (<0.005 μM) | ***** (>4.9)
Cc1c(CCCO)sc2c(NCc3ccco3)nc(Cl)nc12 [Cpd 63, 3-(2-chloro-4-{[(furan-2-yl)methyl]amino}-7-methylthieno[3,2-d]pyrimidin-6-yl)propan-l-ol] | * (EC2×>1 μM) | * (MFI<1.9)
N[C@@H](CO)Cc1cc2nc(Cl)nc(NCc3ccco3)c2s1 [Cpd 22, (2R)-2-amino-3-(2-chloro-4-{[(furan-2-yl)methyl]amino}thieno[3,2-d]pyrimidin-6-yl)propan-l-ol] | ***** (<0.005 μM) | ***** (>4.9)
Cc1c(C[C@H](C)N)sc2c(NCc3ccco3)nc(C(F)(F)F)nc12 [Cpd 26, 6-[(2S)-2-aminopropyl]-N-[(furan-2-yl)methyl]-7-methyl-2-(trifluoromethyl)thieno[3,2-d]pyrimidin-4-amine] | *** (between >0.02 μM and ≤0.5 μM) | **** (between >3.9 and <4.9)
